Source: ChEMBL document CHEMBL3124892, “Polyphenols bearing cinnamaldehyde scaffold showing cell growth inhibitory effects on the cisplatin-resistant A2780/Cis ovarian cancer cells” (Bioorg Med Chem, 2014)
pIC50: −log10 of the molar value. The source made the active and inactive calls. The calls are words filed in the database; no cut-off is given here.

How the values were obtained:
[1] = Growth inhibition of cisplatin-resistant human A2780cis cells after 7 days by crystal violet staining based clonogenic assay; type: functional; details: A2780cisR, 168 h
[2] = Cell cycle arrest in cisplatin-resistant human A2780cis cells assessed as accumulation at sub-G1 phase at 20 uM after 24 hrs by propidium iodide staining based flow cytometry (reference value: 7.76%); type: functional; details: A2780cisR
Aurora kinase A = target: T1, Aurora kinase A (Homo sapiens, UniProt O14965); test: Inhibition of human aurora A kinase using LRRASLG as substrate by scintillation counting in presence of [gamma-33P]ATP
T1 sequence (O14965 whole entry): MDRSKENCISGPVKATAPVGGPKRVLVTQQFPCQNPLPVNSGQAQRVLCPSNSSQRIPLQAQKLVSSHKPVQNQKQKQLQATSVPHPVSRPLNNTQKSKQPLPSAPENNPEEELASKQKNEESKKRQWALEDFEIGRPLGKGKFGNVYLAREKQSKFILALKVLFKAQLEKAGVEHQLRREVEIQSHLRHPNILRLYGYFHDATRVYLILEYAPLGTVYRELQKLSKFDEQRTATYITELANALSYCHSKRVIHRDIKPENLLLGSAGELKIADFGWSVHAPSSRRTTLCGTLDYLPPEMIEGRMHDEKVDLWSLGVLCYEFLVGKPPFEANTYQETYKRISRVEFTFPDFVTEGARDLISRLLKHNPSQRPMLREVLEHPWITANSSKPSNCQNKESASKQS

[3] = Cell cycle arrest in cisplatin-resistant human A2780cis cells assessed as accumulation at G2/M phase at 20 uM after 24 hrs by propidium iodide staining based flow cytometry (reference value: 29.47%); type: functional; details: A2780cisR
A2780cisR [4] = test: Induction of apoptosis in cisplatin-resistant human A2780cis cells assessed as PARP cleavage at 20 uM after 24 hrs by western blot analysis; type: functional, cell-based
A2780cisR [5] = test: Induction of apoptosis in cisplatin-resistant human A2780cis cells assessed as stimulation of caspase 7 cleavage at 20 uM after 24 hrs by western blot analysis; type: functional, cell-based
[6] = Cell cycle arrest in cisplatin-resistant human A2780cis cells assessed as accumulation at S phase at 20 uM after 24 hrs by propidium iodide staining based flow cytometry (reference value: 17.24%); type: functional; details: A2780cisR
A2780cisR [7] = test: Antiproliferative activity against cisplatin-resistant human A2780cis cells at 1 to 20 uM by cell counting kit-8 analysis; type: functional, cell-based; details: TDE = time-dependent effect
[8] = Cell cycle arrest in cisplatin-resistant human A2780cis cells assessed as accumulation at G1 phase at 20 uM after 24 hrs by propidium iodide staining based flow cytometry (reference value: 45.33%); type: functional; details: A2780cisR
A2780cisR [9] = test: Antiproliferative activity against cisplatin-resistant human A2780cis cells after 24 to 48 hrs by cell counting kit-8 analysis; type: functional, cell-based
A2780cisR [10] = test: Induction of apoptosis in cisplatin-resistant human A2780cis cells assessed as shrunken and fragmented nuclei with condensed chromatin at 20 uM after 24 hrs by TO-PRO-3 iodide staining based immunofluorescent microscopy; type: functional, cell-based
A2780cisR [11] = test: Induction of apoptosis in cisplatin-resistant human A2780cis cells assessed as increase in cleaved active caspase-7 level at 20 uM after 24 hrs by immunofluorescent microscopy; type: functional, cell-based

Row | Compound | GI50 ([1]; read-out: GI50) | GI50 ([1]; read-out: pGI50 (converted)) | also measured
1 | COc1cccc(/C=C/C(=O)c2c(O)cccc2OC)c1 | 9.64 µM | 9.57 µM | 
2 | COc1cccc(/C=C/C(=O)c2c(O)cccc2OC)c1OC | 9.67 µM | 9.8 µM | 
3 | COc1cc(/C=C/C(=O)c2cc(OC)ccc2O)cc(OC)c1 | 11.3 µM | 11.2 µM | 
4 | COc1cc(/C=C/C(=O)c2c(O)cccc2OC)cc(OC)c1 | 11.4 µM | 11.5 µM | 
5 | COc1ccc2c(c1)C=C(C=O)CO2 | > 20 µM | 20 µM | 
6 | COc1cccc(/C=C/C(=O)c2cc(OC)ccc2O)c1 | 10.1 µM | 10.3 µM | 
7 | COc1cccc(/C=C/C(=O)c2ccccc2O)c1OC | 14.4 µM | 14.5 µM | 
8 | COc1ccc(O)c(C(=O)/C=C/c2cccc(OC)c2OC)c1 | 17 µM | 17 µM | 
9 | COc1ccc2c(c1)C=C(C(C)=O)CO2 | > 20 µM | 20 µM | 
10 | COc1ccc(/C=C/C(=O)c2c(O)cccc2OC)cc1 | 15.4 µM | 15.5 µM | 
11 | COc1ccc(/C=C/C(=O)c2ccccc2O)c(OC)c1OC | 14.3 µM | 14.5 µM | 
12 | COc1cc(OC)c(OC)cc1/C=C/C(=O)c1c(O)cccc1OC | 19.2 µM | 19.1 µM | 
13 | COc1ccc(/C=C/C(=O)c2c(O)cccc2OC)c(OC)c1OC | 18.4 µM | 18.2 µM | 
14 | COc1cc(OC)c(/C=C/C(=O)c2c(O)cccc2OC)c(OC)c1 | 3.87 µM | 3.9 µM | Activity [2]: 17.1%; pIC50 (Aurora kinase A): 4.18; Activity [3]: 71%; Activity (A2780cisR [4]): Active; Activity (A2780cisR [5]): Active; Activity [6]: 4.33%; Activity (A2780cisR [7]): tde; Activity [8]: 3.36%; Activity (A2780cisR [9]): Dose-dependent effect
15 | COc1ccccc1/C=C/C(=O)c1ccccc1O | 11.7 µM | 11.8 µM | 
16 | COc1ccccc1/C=C/C(=O)c1c(O)cccc1OC | 9.55 µM | 9.57 µM | 
17 | COc1ccc(/C=C/C(=O)c2c(O)cccc2OC)c(OC)c1 | 9.55 µM | 9.57 µM | 
18 | COc1cc(/C=C/C(=O)c2ccccc2O)cc(OC)c1 | 13.7 µM | 13.8 µM | 
19 | COc1ccc(/C=C/C(=O)c2ccccc2O)cc1 | 15.9 µM | 15.9 µM | 
20 | COc1ccc(/C=C/C(=O)c2ccccc2O)c(OC)c1 | 15 µM | 14.8 µM | 
21 | COc1ccc2c(c1)OCC(C=O)=C2 | > 20 µM | 20 µM | 
22 | O=C(/C=C/c1ccccc1)c1ccccc1O [2'-HYDROXYCHALCONE] | 13.5 µM | 13.5 µM | 
23 | COc1ccc(/C=C/C(=O)c2cc(OC)ccc2O)c(OC)c1 | 19.8 µM | 20 µM | 
24 | COc1ccc(O)c(C(=O)/C=C/c2cc(OC)c(OC)cc2OC)c1 | > 20 µM | 20 µM | 
25 | COc1cc(OC)c(/C=C/C(=O)c2cc(OC)ccc2O)c(OC)c1 | 3.95 µM | 3.99 µM | Activity [2]: 16.5%; Activity (A2780cisR [10]): Active; Activity [3]: 68.3%; Activity (A2780cisR [11]): Active; Activity (A2780cisR [4]): Active; Activity (A2780cisR [5]): Active; Activity [6]: 4.09%; Activity (A2780cisR [7]): tde; Activity [8]: 3.53%; Activity (A2780cisR [9]): Dose-dependent effect
26 | COc1ccc2c(c1)OCC(C(C)=O)=C2 | > 20 µM | 20 µM | 
